These results are taken from patent US20250082633A1, “COMPOUNDS AND METHODS FOR MODULATING SPLICING” (REMIX THERAPEUTICS INC., priority 2021, published 2025).

Where a name gives a salt, the structure may show the parent alone. Some results are limits rather than exact numbers.

One test has as its system Target C. Description: HiBit protein abundance assay, Target C. The test is classed as cell-based. Particulars: Homo sapiens; K562 HiBiT-modified cells, 24 hours, luminescence. The procedure: (§1) Compounds described herein were used to screen for effects on quantitative protein abundance using a HiBit assay system (Promega). Quantitative protein abundance was determined by measuring the protein levels of HiBit-tagged protein targets expressed in cell culture via luminescence using the Nano-Glo HiBiT Lytic Detection System, which uses a split complementation assay format to reconstitute NanoBiT enzyme to generate a luminescent signal. A protein abundance assay was developed such that endogenous protein targets could be modified with the HiBiT peptide tag and their abundance could be assessed after compound treatment. Briefly, K562 cell lines containing a HiBiT-modification were treated with various compounds described herein (e.g., compounds of Formulas (I), (II), or (III)). After treatment for 24 hours, the protein abundance of a specific target was determined by measuring luminescence. • Promega Nano-Glo HiBiT Lytic Detection System (cat #N3030) • Corning 384-well TC-treated microplates (cat #3570) • Synthego Engineered Cells Knock-In Clones Cells were maintained in IMDM with 10% FBS. Before the assay, cells were diluted with phenolphthalein-free growth media (IMDM+1% FBS media) and were seeded in a 384-well plate at a density of 10000 cells/well (for each cell line listed in Table 6). Each compound was prepared as a 10-point 3-fold serial dilution in DMSO with the top dose at a final concentration of 10 μM in the well. Unmodified K562 cells were added at the previously specified density with DMSO to serve as an assay baseline and positive control (PC) and DMSO only with the respective modified cell lines was added to the negative control (NC) columns. Final DMSO concentration was kept at or below 0.25%. Treated cell plates were placed in an incubator at 37° C. with 5% CO2 for 24 hours. After 24 hours, 25 μL of Complete HiBit Lytic reagent was added to each well at room temperature (e.g. one plate requiring 10 mL Lytic Buffer, 100 μL LgBiT Protein, 200 μL Lytic Substrate), shaken for 5 minutes at 600 RPM, then left to sit for 10 minutes for signal to stabilize before reading on a Spark Cyto plate reader (Tecan) with a 500 ms measurement time. To determine compound effects on protein abundance of each target in Table 6, the percent response for each respective cell line was calculated at each compound concentration as follows: For the normalized response at each concentration, a four-parameter logistical regression was fit to the data and the response was interpolated at the 50% value to determine a concentration for protein abundance at 50% (IC50) the untreated control.

Test [1] relates to HiBiT-tagged HTT protein in K562 cells. Kind of test: HiBit protein abundance assay, HTT. It is filed as cell-based, human. Conditions: K562 HiBiT-modified cells, 24 hours, luminescence. As for the experimental part:
as §1, with “Clones [table]” for “Clones”

In the case of `Cc1nc2c(C)cc(-n3cc4cc(N5CCNCC5)cc(F)c4n3)cc2o1` [Compound 119, 6-(7-fluoro-5-piperazin-1-yl-indazol-2-yl)-2,4-dimethyl-1,3-benzoxazole], the IC50 (in the test with Target C; in test [1]) was more than 10000 nM throughout.
Consider `Cn1cc2cc(-c3ccc4nn(C5CCNCC5)cc4c3)cc(F)c2n1` [Compound 105, 7-fluoro-2-methyl-5-[2-(4-piperidyl)indazol-5-yl]indazole], for which the IC50 (in the test with Target C; in test [1]) was 100 to 1000 nM throughout.
As to `Cc1nc2ccc(-c3cc(F)c4nn(C5CCNCC5)cc4c3)cc2s1` [Compound 134, 6-(7-fluoro-2-(piperidin-4-yl)-2H-indazol-5-yl)-2-methylbenzo[d]thiazole], the IC50 (with Target C; in test [1]) was 1000 to 10000 nM in each case.
Turning to `Cc1cn2nc(-c3cc(F)c4nn(C5CCNCC5)cc4c3)cc(C)c2n1` [Compound 122, 6-(7-fluoro-2-(piperidin-4-yl)-2H-indazol-5-yl)-2,8-dimethylimidazo [1,2-b]pyridazine hydrochloride salt], the IC50 (in the test on Target C; in test [1]) was less than 100 nM throughout.
For `Cc1c(O)c(-c2ccc3nn(C4CCNCC4)cc3n2)cc2cn(C)nc12` [Compound 109, 2,7-dimethyl-5-[2-(4-piperidyl)pyrazolo[4,3-b]pyridin-5-yl]indazol-6-ol], the IC50 (with Target C; in test [1]) was less than 100 nM throughout.
For the compound `Fc1cc(-c2ccc3cnccc3c2)cc2cn(C3CCNCC3)nc12` [Compound 161, 6-[7-fluoro-2-(4-piperidyl)indazol-5-yl]isoquinoline], the IC50 in the test on Target C fell in the range of 1000 to 10000 nM; in test [1], 100 to 1000 nM.
With `Cc1cc(-n2cc3cc(N4CCNCC4)ccc3n2)cc2cn(C)nc12` [Compound 121, 2,7-dimethyl-5-(5-piperazin-1-ylindazol-2-yl)indazole], the IC50 (with Target C; in test [1]) was more than 10000 nM each time.
As for `Cc1cn2nc(-c3cc(F)c4nn([C@@H]5CCNC6(CC6)C5)cc4c3)cc(C)c2n1` [Compound 173], the IC50 (with Target C; in test [1]) was less than 100 nM each time.
As to `Cc1nc2ccc(-c3cc(F)c4nn(C5CCNCC5)cc4c3)cc2o1` [Compound 135, 6-[7-fluoro-2-(4-piperidyl)indazol-5-yl]-2-methyl-1,3-benzoxazole], the results for the IC50 (in the test with Target C; in test [1]) were 100 to 1000 nM and less than 100 nM, respectively.
For `Cc1nc2c(F)cc(-c3cc(F)c4nn(C5CCNCC5)cc4c3)cc2o1` [Compound 136, 4-fluoro-6-[7-fluoro-2-(4-piperidyl)indazol-5-yl]-2-methyl-1,3-benzoxazole], the IC50 (with Target C; in test [1]) was less than 100 nM each time.
As for `Cc1cn2nc(-c3cc(F)c4nn(C5CCNCC5)cc4c3)cc2c(C)n1` [Compound 124, 2-[7-fluoro-2-(4-piperidyl)indazol-5-yl]-4,6-dimethyl-pyrazolo[1,5-a]pyrazine], the IC50 (with Target C; in test [1]) was less than 100 nM each time.
On to `Cc1cc(-n2cc3cc(C4CCNCC4)cc(F)c3n2)cc2cn(C)nc12` [Compound 115, 2-(2,7-dimethylindazol-5-yl)-7-fluoro-5-(4-piperidyl)indazole], for which the IC50 (in the test on Target C; in test [1]) was 1000 to 10000 nM each time.
As for `Cc1ncc2cc(-c3cc(F)c4nn(C5CCNCC5)cc4c3)ccc2n1` [Compound 165, 6-[7-fluoro-2-(4-piperidyl)indazol-5-yl]-2-methyl-quinazoline], the IC50 (in the test on Target C; in test [1]) was more than 10000 nM throughout.
Regarding `CCN1CCC(n2cc3cc(-c4cc(C)c5nc(C)cn5n4)cc(F)c3n2)CC1` [Compound 146, 6-[2-(1-ethyl-4-piperidyl)-7-fluoro-indazol-5-yl]-2,8-dimethyl-imidazo[1,2-b]pyridazine], the IC50 (in the test on Target C; in test [1]) was less than 100 nM each time.
For the compound `Cc1cn2nc(-c3cc(F)c4nn(C5CCN(CC6CC6)C6(CC6)C5)cc4c3)cc(C)c2n1` (stereo not drawn) [Compound 183, 6-[2-[4-(cyclopropylmethyl)-4-azaspiro[2.5]octan-7-yl]-7-fluoro-indazol-5-yl]-2,8-dimethyl-imidazo[1,2-b]pyridazine], the IC50 (in the test with Target C; in test [1]) was less than 100 nM throughout.
With `Cc1cn2nc(-c3cc(F)c4nn([C@H]5CCNC[C@@H]5F)cc4c3)cc(C)c2n1` [Compound 167, 6-(7-fluoro-2-((3S,4S)-3-fluoropiperidin-4-yl)-2H-indazol-5-yl)-2,8-dimethylimidazo[1,2-b]pyridazine], the IC50 (in the test on Target C; in test [1]) was 100 to 1000 nM in each case.
In the case of `Cc1cn2nc(-c3cc4cn(C5CCNCC5)nc4cc3O)cc(C)c2n1` [Compound 154, 5-(2,8-dimethylimidazo[1,2-b]pyridazin-6-yl)-2-(piperidin-4-yl)-2H-indazol-6-ol], the IC50 (in the test on Target C; in test [1]) was less than 100 nM in each case.
With `Cc1cn2nc(-c3cc(F)c4nn(C5CCN(CC6CC6)CC5)cc4c3)cc(C)c2n1` [Compound 149, 6-[2-[1-(cyclopropylmethyl)-4-piperidyl]-7-fluoro-indazol-5-yl]-2,8-dimethyl-imidazo[1,2-b]pyridazine], the IC50 (with Target C; in test [1]) was less than 100 nM in each case.
